From ChEMBL document CHEMBL4251725, “Azabicyclic Fused Pyrimidine Derivatives Useful for the Treatment of Alzheimer's Disease” (ACS Med Chem Lett, 2018)

Biological target: Gamma-secretase
Experiment: Inhibition of gamma-secretase in human H4 cells harboring APP695 K595N/M596L swedish mutant after 24 hrs by AlphaLisa assay
Assay type: cell-based

Structure (SMILES) | EC50
CNc1nc(Nc2ccc(-n3cnc(C)n3)c(F)c2)nc2c1C(C)(C)CCN2c1ccc(F)cc1 | 8 nM
CNc1nc(Nc2ccc(-n3cnc(C)c3)c(OC)c2)nc2c1C(C)(C)CN2C1CC(F)(F)C1 | 14 nM
